Experiment [1] concerns the target human recombinant serotonin (5-Hydroxytryptamine) 5-HT7 receptor (Homo sapiens, UniProt P34969). Nature of the experiment: Serotonin 5-HT7 radioligand binding ([3H]LSD). To be noted: for inhibition at 1 µM: read-out: Inhibition of ligand binding, Serotonin 5-HT7 (percent inhibition of specific binding). From the text: Receptor proteins were filtered and washed, the filters were then counted to determine [^3H]LSD specifically bound.

Experiment [2] has as its target T1, human recombinant serotonin (5-Hydroxytryptamine) 5-HT2A receptor (Homo sapiens, UniProt P28223).
T1 construct: expressed in transfected cells; host or cells: Chinese hamster ovary (CHO-K1) cells
Nature of the experiment: Serotonin 5-HT2A radioligand binding ([3H]Ketanserin). As to conditions: for inhibition at 1 µM: read-out: Inhibition of ligand binding, Serotonin 5-HT2A (percent inhibition of specific binding), compound at 1 μM; for inhibition at 0.1 µM: read-out: Inhibition of ligand binding, Serotonin 5-HT2A (percent inhibition of specific binding), compound at 0.1 μM. The procedure: Compounds of the invention were incubated with 0.5 nM [^3H]Ketanserin for 60 min. at 25° C. Non-specific binding was estimated in the presence of 1 μM Mianserin. Receptor proteins were filtered and washed, the filters were then counted to determine [^3H]Ketanserin specifically bound.

Experiment [3] concerns the target T2, human recombinant serotonin (5-Hydroxytryptamine) 5-HT2C receptor (Homo sapiens, UniProt P28335).
T2 construct: expressed in transfected cells; host or cells: Chinese hamster ovary (CHO-K1) cells
T2 sequence (P28335 33-458): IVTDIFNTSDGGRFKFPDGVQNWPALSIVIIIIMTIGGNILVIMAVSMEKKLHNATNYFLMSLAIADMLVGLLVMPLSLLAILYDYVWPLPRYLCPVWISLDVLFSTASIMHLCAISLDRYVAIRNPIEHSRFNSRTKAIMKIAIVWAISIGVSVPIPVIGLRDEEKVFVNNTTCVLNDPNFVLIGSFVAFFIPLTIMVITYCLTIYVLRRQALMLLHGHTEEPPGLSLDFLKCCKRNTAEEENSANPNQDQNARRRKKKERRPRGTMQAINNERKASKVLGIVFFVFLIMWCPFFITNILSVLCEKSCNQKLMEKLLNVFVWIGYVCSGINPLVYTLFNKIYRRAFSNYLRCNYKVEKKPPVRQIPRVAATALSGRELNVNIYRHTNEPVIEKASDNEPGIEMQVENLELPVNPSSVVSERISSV
Kind of experiment: Serotonin 5-HT2C radioligand binding ([3H]Mesulergine). As to conditions: for inhibition at 1 µM / inhibition at 0.1 µM: read-out: Inhibition of ligand binding, Serotonin 5-HT2C (percent inhibition of specific binding). The procedure, abridged: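 Compounds tested at 1 μM or lower (1% DMSO vehicle) for displacement of 1 nM [3H]Mesulergine over 60 min at 25° C. Specific binding determined by filtration counting, with 1 μM Mianserin defining non-specific binding; values are percent inhibition.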

Experiment [4] addresses T3, human recombinant histamine H2 receptor (Homo sapiens, UniProt P25021).
T3 construct: expressed in transfected cells; host or cells: Chinese hamster ovary (CHO) K1 cells
Kind of experiment: Histamine H2 radioligand binding ([125I]Aminopotentidine). As to conditions: read-out: Histamine Binding (1 μM) H2, percent inhibition of specific binding, 1 μM. The gist of the method:
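CHO-K1 cells expressing human recombinant H2 receptor, 50 mM phosphate buffer pH 7.4; compounds incubated with 0.1 nM [125I]aminopotentidine for 120 min at 25 °C. Nonspecific binding defined with 3 μM tiotidine; specifically bound radioligand counted after filtration and washing.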

Experiment [5] deals with T4, human recombinant adrenergic α1D receptor (Homo sapiens, UniProt P25100).
T4 construct: expressed in transfected cells; host or cells: human embryonic kidney (HEK-293) cells
T4 sequence (P25100 1-572): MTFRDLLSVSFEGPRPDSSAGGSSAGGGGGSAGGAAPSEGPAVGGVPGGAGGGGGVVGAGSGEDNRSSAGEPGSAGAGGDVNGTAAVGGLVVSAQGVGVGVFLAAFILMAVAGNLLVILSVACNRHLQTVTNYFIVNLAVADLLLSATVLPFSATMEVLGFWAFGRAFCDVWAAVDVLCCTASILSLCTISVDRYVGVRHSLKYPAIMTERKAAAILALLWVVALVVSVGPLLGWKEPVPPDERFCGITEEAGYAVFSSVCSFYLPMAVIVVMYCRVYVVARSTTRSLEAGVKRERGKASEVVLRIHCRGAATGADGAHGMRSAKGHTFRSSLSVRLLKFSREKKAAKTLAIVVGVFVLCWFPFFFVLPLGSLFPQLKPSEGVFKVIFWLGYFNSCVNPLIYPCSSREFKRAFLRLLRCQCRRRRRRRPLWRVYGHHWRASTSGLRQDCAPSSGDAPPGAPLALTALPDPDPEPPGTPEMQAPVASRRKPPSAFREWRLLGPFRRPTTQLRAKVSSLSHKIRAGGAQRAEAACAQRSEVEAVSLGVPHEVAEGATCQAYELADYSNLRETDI
Kind of experiment: Adrenergic α1D radioligand binding ([3H]Prozosin). As to conditions: compound at 1 μM. The procedure: Compounds of invention were incubated with 0.6 nM [^3H]Prozosin for 60 min. at 25° C. Non-specific binding was estimated in the presence of 10 μM phentolamine. Receptor proteins were filtered and washed, the filters were then counted to determine [^3H]Prozosin specifically bound. Compounds were screened at 1 μM or lower, using 1% DMSO as vehicle. Biochemical assay results are presented as the percent inhibition of specific binding in Table 9.

Where [6] appears, read: percent inhibition of specific binding, read-out: Inhibition of ligand binding, Adrenergic α1D.

Molecules are shown by their SMILES. Several values for one entry are separate records, joined by “and”; a condition that tells them apart may be missing. Identical values can stand only once. Like-named read-outs stand apart in the source and are kept apart here.

Sequence of human recombinant serotonin (5-Hydroxytryptamine) 5-HT7 receptor (P34969 whole entry): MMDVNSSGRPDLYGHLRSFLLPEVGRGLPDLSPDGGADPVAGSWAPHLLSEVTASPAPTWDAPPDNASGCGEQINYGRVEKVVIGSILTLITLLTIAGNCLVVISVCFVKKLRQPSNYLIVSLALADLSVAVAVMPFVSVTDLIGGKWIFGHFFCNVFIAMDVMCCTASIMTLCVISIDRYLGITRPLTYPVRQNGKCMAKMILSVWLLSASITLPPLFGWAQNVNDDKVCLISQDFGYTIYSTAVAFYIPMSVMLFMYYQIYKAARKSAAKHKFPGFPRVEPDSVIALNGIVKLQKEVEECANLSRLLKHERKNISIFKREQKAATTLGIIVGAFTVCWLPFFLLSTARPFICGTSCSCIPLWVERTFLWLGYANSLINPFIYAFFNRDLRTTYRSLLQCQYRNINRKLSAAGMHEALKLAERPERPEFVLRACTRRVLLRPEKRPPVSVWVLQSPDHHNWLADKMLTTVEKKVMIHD
T3 sequence (P25021 whole entry): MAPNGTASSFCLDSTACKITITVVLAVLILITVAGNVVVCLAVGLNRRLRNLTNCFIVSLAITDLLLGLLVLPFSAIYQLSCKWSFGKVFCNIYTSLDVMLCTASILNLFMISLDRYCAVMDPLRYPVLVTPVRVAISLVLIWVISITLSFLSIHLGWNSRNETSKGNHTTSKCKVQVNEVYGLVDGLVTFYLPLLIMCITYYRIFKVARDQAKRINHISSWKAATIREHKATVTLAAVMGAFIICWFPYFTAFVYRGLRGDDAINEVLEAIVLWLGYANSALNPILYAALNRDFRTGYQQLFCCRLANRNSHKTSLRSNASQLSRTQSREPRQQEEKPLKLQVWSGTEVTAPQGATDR
T1 sequence (P28223 whole entry): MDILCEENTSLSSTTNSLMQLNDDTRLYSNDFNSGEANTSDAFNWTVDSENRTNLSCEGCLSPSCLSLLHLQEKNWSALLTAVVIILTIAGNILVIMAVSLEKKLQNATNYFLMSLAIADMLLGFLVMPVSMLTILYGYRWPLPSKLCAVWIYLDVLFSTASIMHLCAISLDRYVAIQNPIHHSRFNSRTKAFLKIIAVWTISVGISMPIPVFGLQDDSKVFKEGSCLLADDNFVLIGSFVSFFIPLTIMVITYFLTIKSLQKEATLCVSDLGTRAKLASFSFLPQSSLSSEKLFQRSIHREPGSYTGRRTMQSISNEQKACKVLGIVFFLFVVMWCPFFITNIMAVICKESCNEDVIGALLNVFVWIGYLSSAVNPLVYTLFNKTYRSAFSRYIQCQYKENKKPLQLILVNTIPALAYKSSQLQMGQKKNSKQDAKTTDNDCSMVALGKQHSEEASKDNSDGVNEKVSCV

The term inhibition denotes the change of the read-out against control, counted positive when it falls. For `CN1CCc2c(c3cc(Cl)ccc3n2C/C(=C/CCO)c2ccc(F)cc2)C1` [Compound No. 349, (E)-5-(8-chloro-2-methyl-3,4-dihydro-1H-pyrido[4,3-b]indol-5(2H)-yl)-4-(4-fluorophenyl)pent-3-en-1-ol], the “Inhibition of ligand binding, Serotonin 5-HT7 (percent inhibition of specific binding)” value in experiment [1] (compound at 1 μM, 1 µM) stood at 100%. The inhibition at 1 µM in experiment [1] (compound at 1 μM) stood at 93%; in experiment [2], 97%; in experiment [3] (compound at 1 μM), 96%; in experiment [4], 84%; in experiment [5] (setting [6]), 60%. Further, the “Inhibition of ligand binding, Serotonin 5-HT2A (percent inhibition of specific binding)” value in experiment [2] (compound at 1 μM, 1 µM) was 100%. Moreover, the “Inhibition of ligand binding, Serotonin 5-HT2C (percent inhibition of specific binding)” value in experiment [3] (compound at 1 μM, 1 µM) is 98%.
`CCCCC(O)(Cn1c2c(c3cc(Cl)ccc31)CN(C)CC2)c1ccc(F)cc1` (stereo not shown) [Compound 178, 1-(8-chloro-2-methyl-3,4-dihydro-1H-pyrido[4,3-b]indol-5(2H)-yl)-2-(4-fluorophenyl)hexan-2-ol]: the inhibition at 1 µM in experiment [1] (compound at 1 μM) worked out at 48%; in experiment [2], 98%; in experiment [3] (compound at 1 μM) it was 95%; in experiment [4], 89%; in experiment [5] (setting [6]), 46%.
For the compound `Cc1ccc2c(c1)c1c(n2CC(O)(c2ccccc2)c2ccc(F)cc2)CCN(C)C1` (stereo not shown) [Compound No. 176, 2-(2,8-dimethyl-3,4-dihydro-1H-pyrido[4,3-b]indol-5(2H)-yl)-1-(4-fluorophenyl)-1-phenylethanol], the inhibition at 1 µM was determined as 65% in experiment [1] (compound at 1 μM); 97% in experiment [2]; 99% in experiment [3] (compound at 1 μM); 74% in experiment [4]; 42% in experiment [5] (setting [6]).
With `CNC(=O)C/C(=C\n1c2c(c3cc(C)ccc31)CN(C)CC2)c1ccc(F)cc1` [Compound 207, (E)-4-(2,8-dimethyl-3,4-dihydro-1H-pyrido[4,3-b]indol-5(2H)-yl)-3-(4-fluorophenyl)-N-methylbut-3-enamide], the inhibition at 1 µM in experiment [1] (compound at 1 μM) worked out at 92%; in experiment [2], 97%; in experiment [3] (compound at 1 μM) it was 97%; in experiment [4] it was 46%; in experiment [5] (setting [6]), 100%.
Turning to `CCC(O)(Cn1c2c(c3cc(C)ccc31)CN(C)CC2)c1ccc(F)cc1` (stereo not shown) [Compound 175, 1-(2,8-dimethyl-3,4-dihydro-1H-pyrido[4,3-b]indol-5(2H)-yl)-2-(4-fluorophenyl)butan-2-ol], the inhibition at 1 µM came out at 79% in experiment [1] (compound at 1 μM); 102% in experiment [2]; 95% in experiment [3] (compound at 1 μM); 91% in experiment [4]; 75% in experiment [5] (setting [6]).
Regarding `Cc1ccc2c(c1)c1c(n2C#Cc2ccc(C)nc2)CCN(C)C1` [Compound No. 476, 2,8-dimethyl-5-((6-methylpyridin-3-yl)ethynyl)-2,3,4,5-tetrahydro-1H-pyrido[4,3-b]indole], the “Inhibition of ligand binding, Serotonin 5-HT7 (percent inhibition of specific binding)” value in experiment [1] (compound at 1 μM, 1 µM) turned out to be 92%. For the same compound, the inhibition at 1 µM in experiment [1] (compound at 1 μM) worked out at 90%; in experiment [2], 100%; in experiment [3] (compound at 1 μM) it was 95%; in experiment [4], 88%; in experiment [5] (read-out: Inhibition of ligand binding, Adrenergic α1D (percent inhibition of specific binding)) it was 95%.
For `C/C(=C\n1c2c(c3cc(Cl)ccc31)CN(C)CC2)c1ccc(Cl)cc1` [Compound 100, (E)-8-chloro-5-(2-(4-chlorophenyl)prop-1-enyl)-2,3,4,5-tetrahydro-2-methyl-1H-pyrido[4,3-b]indole], the inhibition at 1 µM turned out to be 99% in experiment [1] (compound at 1 μM); 101% in experiment [2]; 97% in experiment [3] (compound at 1 μM); 100% in experiment [4]; 87% in experiment [5] (setting [6]). The inhibition at 0.1 µM in experiment [2] was determined as 97%; in experiment [3] (compound at 0.1 μM), 104%.
As to `Cc1ccc2c(c1)c1c(n2/C=C(\CC(=O)O)c2ccc(F)cc2)CCN(C)C1` [Compound 209, (E)-4-(2,8-dimethyl-3,4-dihydro-1H-pyrido[4,3-b]indol-5(2H)-yl)-3-(4-fluorophenyl)but-3-enoic acid], the inhibition at 1 µM in experiment [1] (compound at 1 μM) turned out to be 36%; in experiment [2], 93%; in experiment [3] (compound at 1 μM), 95%; in experiment [4], 20%; in experiment [5] (setting [6]) it was 21%.
For `CCC(O)(Cn1c2c(c3cc(Cl)ccc31)CN(C)CC2)c1ccc(F)cc1` (stereo not shown) [Compound 78, 1-(8-chloro-1,2,3,4-tetrahydro-2-methylpyrido[4,3-b]indol-5-yl)-2-(4-fluorophenyl)butan-2-ol], the inhibition at 1 µM in experiment [1] (compound at 1 μM) amounted to 97%; in experiment [2], 97%; in experiment [3] (compound at 1 μM), 103%; in experiment [4], 89%; in experiment [5] (setting [6]), 49%. Further, the inhibition at 0.1 µM was 76% in experiment [2] and 69% in experiment [3] (compound at 0.1 μM).
Turning to `C/C=C/C(=C\n1c2c(c3cc(Cl)ccc31)CN(C)CC2)c1ccc(F)cc1` [Compound 204, 8-chloro-5-((1E,3E)-2-(4-fluorophenyl)penta-1,3-dienyl)-2-methyl-2,3,4,5-tetrahydro-1H-pyrido[4,3-b]indole], the inhibition at 1 µM stood at 93% in experiment [1] (compound at 1 μM); 101% in experiment [2]; 102% in experiment [3] (compound at 1 μM); 101% in experiment [4]; 67% in experiment [5] (setting [6]).
In the case of `C/C(=C\n1c2c(c3cc(C)ccc31)CN(C)CC2)c1ccncc1` [Compound 88, (E)-2,3,4,5-tetrahydro-2,8-dimethyl-5-(2-(pyridin-4-yl)prop-1-enyl)-1H-pyrido[4,3-b]indole], the “Inhibition of ligand binding, Serotonin 5-HT7 (percent inhibition of specific binding)” value in experiment [1] (compound at 0.1 μM, 0.1 µM) was 75% and 97%. Further, the inhibition at 1 µM in experiment [1] (compound at 1 μM) amounted to 93%; in experiment [2], 98%; in experiment [3] (compound at 1 μM), 99%; in experiment [4], 30%; in experiment [5] (setting [6]), 78%. Also, the “Inhibition of ligand binding, Serotonin 5-HT2A (percent inhibition of specific binding)” value was determined as 95% in experiment [2] (compound at 0.1 μM, 0.1 µM) and 101% in experiment [2] (compound at 1 μM, 1 µM). Moreover, in experiment [2], the inhibition at 0.1 µM is 87%. In addition, the “Inhibition of ligand binding, Serotonin 5-HT2C (percent inhibition of specific binding)” value in experiment [3] (compound at 0.1 μM, 0.1 µM) is 74% and 96%; in experiment [3] (compound at 1 μM, 1 µM) it was 100%.
As for `CN1CCc2c(c3cc(Cl)ccc3n2CC(C)(O)c2ccc(F)cc2)C1` (stereo not shown) [Compound 45, 1-(8-chloro-1,2,3,4-tetrahydro-2-methylpyrido[4,3-b]indol-5-yl)-2-(4-fluorophenyl)propan-2-ol], the inhibition at 1 µM in experiment [1] (compound at 1 μM) is 92%; in experiment [2], 99%; in experiment [3] (compound at 1 μM) it was 95%; in experiment [4], 94%; in experiment [5] (setting [6]) it was 61%. The inhibition at 0.1 µM in experiment [2] turned out to be 86%; in experiment [3] (compound at 0.1 μM), 88%.

These data come from patent US8906925B2, “Pyrido[4,3-B]indoles containing rigid moieties” (Medivation Technologies, Inc., priority 2008, dated 2014).
